The record followed here is US20250346600A1, “TRICYCLIC DERIVATIVES AND RELATED USES” (MOMA Therapeutics, Inc., priority 2023, published 2025).

One assay deals with HT29 cells. Put plainly: HT29 (MSS) 7 day viability, CellTiter Glo. It counts as cell-based. Conditions: Homo sapiens, HT-29, 168 h, 7 days, read-out: HT29 (MSS) Viability 7 Day CTGAbs AC50. A digest of the protocol: (§1)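 Seven-day viability is assessed with CellTiter Glo after compounds, diluted in ten 3-fold steps in DMSO, are exposed to HCT116 (50 cells/well) or HT29 (500 cells/well). Reported IC50 is the geometric mean of at least two independent runs.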
A general note: ATP-based viability assays read luminescence as a measure of living cells.

For assay [1], the target named is T1, Full length WRN protein (aa 2-1432) (Homo sapiens (Human), UniProt Q14191). Put plainly: WRN ATPase ADP-Glo biochemical assay, Assay Format B (100 μM ATP). Conditions: 0.25 nM WRN, 100 nM C6.18 ssDNA, 60 min preincubation, read-out: ATPase ADPGlo AC50 (uM)- Assay Format B. For orientation: In ADP-Glo the light output rises with the ADP produced.
Assay [2] has as its target T1, Full length WRN protein (aa 2-1432). Put plainly: WRN ATPase ADP-Glo biochemical assay, Assay Format A (10 μM ATP). Conditions: 0.25 nM WRN, 100 nM C6.18 ssDNA, 30 min preincubation, read-out: ATPase ADPGlo AC50 (uM)- Assay Format A. A digest of the protocol:
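Sf9-expressed FLAG-AVI-TEV-tagged WRN (0.5 nM) preincubated 30 min with compound (11-point 3-fold dilution). Reaction started with 200 nM C6.18 39-mer ssDNA and 20 μM ATP (addition concentrations), run 30 min at room temperature. ADP measured by ADP-Glo luminescence; IC50 from four-parameter fit, geometric mean of ≥2 runs.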

A further assay relates to HCT116 cells. Put plainly: HCT116 (MSI) 7 day viability, CellTiter Glo. Format: cell-based. Conditions: Homo sapiens, HCT-116, 168 h, 7 days, read-out: HCT116 (MSI) Viability 7 Day Abs AC50. Summed up:
as §1

SMILES strings stand for the structures. Bounds are passed on as bounds.

T1 sequence (Q14191 2-1432): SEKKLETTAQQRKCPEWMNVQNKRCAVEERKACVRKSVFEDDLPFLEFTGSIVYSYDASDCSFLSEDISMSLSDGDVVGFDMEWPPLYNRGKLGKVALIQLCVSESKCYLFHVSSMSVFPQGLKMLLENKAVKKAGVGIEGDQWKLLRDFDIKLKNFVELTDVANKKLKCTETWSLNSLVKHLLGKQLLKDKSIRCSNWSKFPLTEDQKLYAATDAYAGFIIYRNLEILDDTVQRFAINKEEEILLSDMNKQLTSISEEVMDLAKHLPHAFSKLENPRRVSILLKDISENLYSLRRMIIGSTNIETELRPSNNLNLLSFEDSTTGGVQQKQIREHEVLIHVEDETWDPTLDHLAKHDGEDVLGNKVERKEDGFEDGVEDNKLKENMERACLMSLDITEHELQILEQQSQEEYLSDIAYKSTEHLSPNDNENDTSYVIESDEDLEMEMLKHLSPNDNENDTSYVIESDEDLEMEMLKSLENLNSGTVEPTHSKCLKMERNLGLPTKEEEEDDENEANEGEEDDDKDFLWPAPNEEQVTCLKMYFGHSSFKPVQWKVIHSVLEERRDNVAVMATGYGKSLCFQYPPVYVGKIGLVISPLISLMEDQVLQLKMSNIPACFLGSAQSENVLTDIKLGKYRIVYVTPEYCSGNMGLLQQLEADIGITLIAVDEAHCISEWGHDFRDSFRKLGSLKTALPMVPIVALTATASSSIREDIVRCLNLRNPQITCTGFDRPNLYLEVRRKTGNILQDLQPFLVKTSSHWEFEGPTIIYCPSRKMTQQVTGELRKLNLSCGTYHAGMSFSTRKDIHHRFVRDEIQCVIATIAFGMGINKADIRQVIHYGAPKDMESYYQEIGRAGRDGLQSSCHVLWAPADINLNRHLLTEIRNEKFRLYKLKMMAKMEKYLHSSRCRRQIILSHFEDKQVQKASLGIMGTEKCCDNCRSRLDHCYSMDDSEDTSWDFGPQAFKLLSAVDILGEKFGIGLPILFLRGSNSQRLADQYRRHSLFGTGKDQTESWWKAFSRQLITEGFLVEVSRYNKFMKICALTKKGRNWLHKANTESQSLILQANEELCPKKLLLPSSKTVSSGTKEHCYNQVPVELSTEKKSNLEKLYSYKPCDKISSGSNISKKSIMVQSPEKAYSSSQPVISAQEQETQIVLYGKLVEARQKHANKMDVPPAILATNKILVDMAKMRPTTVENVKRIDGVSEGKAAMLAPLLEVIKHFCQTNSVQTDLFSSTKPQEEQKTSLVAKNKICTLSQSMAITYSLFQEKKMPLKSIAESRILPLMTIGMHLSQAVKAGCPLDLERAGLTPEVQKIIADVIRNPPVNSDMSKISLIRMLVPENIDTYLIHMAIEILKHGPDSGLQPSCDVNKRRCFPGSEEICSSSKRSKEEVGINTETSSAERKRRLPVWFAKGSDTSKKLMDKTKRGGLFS

As to `C=CC(=O)N1CCc2nn(-c3ccc(C4CCC4)cc3O)c3c2C(C1)N(C(=O)c1cc(O)c2scnc2c1)CC3` (centres unmarked) [Compound 153, 1-(2-(4-cyclobutyl-2-hydroxyphenyl)-5-(7-hydroxybenzo[d]thiazole-5-carbonyl)-2,3,4,5,5a,6,8,9-octahydro-7H-1,2,5,7-tetraazabenzo[cd]azulen-7-yl)prop-2-en-1-one], the AC50 (as a rule, the concentration giving half of the maximal activity seen) is more than 3 µM in the assay with HT29 cells, 0.0015 to 0.005 µM in assay [1], less than 0.0015 µM in assay [2] and 0.001 to 0.1 µM in the assay with HCT116 cells.

On to `C=CC(=O)N1CCc2nn(-c3ccc(C4CC4)cc3C(F)(F)F)c3c2C(C1)N(C(=O)c1cnc(C(F)(F)F)cc1N)CC3` (centres unmarked) [Compound 256, 1-(5-(4-amino-6-(trifluoromethyl)nicotinoyl)-2-(4-cyclopropyl-2-(trifluoromethyl)phenyl)-2,3,4,5,5a,6,8,9-octahydro-7H-1,2,5,7-tetraazabenzo[cd]azulen-7-yl)prop-2-en-1-one], for which the concentration at half-maximal activity (AC50) in the assay on HT29 cells is more than 3 µM; in assay [1] it was more than 0.055 µM; in assay [2] it was 0.015 to 0.055 µM; in the assay with HCT116 cells, 0.25 to 0.5 µM.

For the compound `CC(C)c1ccc(-n2nc3c4c2CCN(C(=O)c2ccc(Br)c5[nH]cnc25)C4CN(C(=O)/C=C/CN(C)C)CC3)cc1` (centres unmarked) [Compound 15, 1-(5-(7-bromo-1H-benzo[d]imidazole-4-carbonyl)-2-(4-isopropylphenyl)-2,3,4,5,5a,6,8,9-octahydro-7H-1,2,5,7-tetraazabenzo[cd]azulen-7-yl)-4-(dimethylamino)but-2-en-1-one], the AC50 in the assay on HT29 cells is more than 3 µM; in assay [1] it was more than 0.055 µM; in assay [2], 0.015 to 0.055 µM; with HCT116 cells it was 0.25 to 0.5 µM.

As to `C=CC(=O)N1CCc2nn(-c3ccc(C4CC4)cc3O)c3c2C(C1)N(C(=O)c1cnc(Br)c(F)c1N)CC3` (centres unmarked) [Compound 202, 1-(5-(4-amino-6-bromo-5-fluoronicotinoyl)-2-(4-cyclopropyl-2-hydroxyphenyl)-2,3,4,5,5a,6,8,9-octahydro-7H-1,2,5,7-tetraazabenzo[cd]azulen-7-yl)prop-2-en-1-one], the AC50 in the assay on HT29 cells was more than 3 µM; in assay [1], 0.0015 to 0.005 µM; in assay [2], 0.0015 to 0.005 µM; with HCT116 cells it was 0.001 to 0.1 µM.

Regarding `C=CC(=O)N1CCc2nn(-c3ccc(C4CC4)cc3O)c3c2C(C1)N(C(=O)c1cnc(C(C)(F)F)c(F)c1N)CC3` (centres unmarked) [Compound 206, 1-(5-(4-amino-6-(1,1-difluoroethyl)-5-fluoronicotinoyl)-2-(4-cyclopropyl-2-hydroxyphenyl)-2,3,4,5,5a,6,8,9-octahydro-7H-1,2,5,7-tetraazabenzo[cd]azulen-7-yl)prop-2-en-1-one], the AC50 is more than 3 µM in the assay with HT29 cells, 0.0015 to 0.005 µM in assay [1], 0.0015 to 0.005 µM in assay [2] and 0.001 to 0.1 µM in the assay with HCT116 cells.

On to `C=CC(=O)N1CCc2nn(-c3ccc(C45CC(C4)C5)c(F)c3)c3c2C(C1)N(C(=O)c1ccc(Br)c2[nH]cnc12)CC3` (centres unmarked) [Compound 84, 1-(2-(4-(bicyclo[1.1.1]pentan-1-yl)-3-fluorophenyl)-5-(7-bromo-1H-benzo[d]imidazole-4-carbonyl)-2,3,4,5,5a,6,8,9-octahydro-7H-1,2,5,7-tetraazabenzo[cd]azulen-7-yl)prop-2-en-1-one], for which the AC50 was more than 3 µM in the assay with HT29 cells, 0.015 to 0.055 µM in assay [1], 0.0015 to 0.005 µM in assay [2] and 0.001 to 0.1 µM in the assay on HCT116 cells.

For `C=CC(=O)N1CCc2nn(-c3ccc(C4CCC4)cc3O)c3c2C(C1)N(C(=O)c1ccc(Br)c2[nH]c(CO)nc12)CC3` (centres unmarked) [Compound 75, 1-(5-(7-bromo-2-(hydroxymethyl)-1H-benzo[d]imidazole-4-carbonyl)-2-(4-cyclobutyl-2-hydroxyphenyl)-2,3,4,5,5a,6,8,9-octahydro-7H-1,2,5,7-tetraazabenzo[cd]azulen-7-yl)prop-2-en-1-one], the AC50 in the assay on HT29 cells was more than 3 µM; in assay [1], 0.0015 to 0.005 µM; in assay [2], less than 0.0015 µM; in the assay on HCT116 cells, 0.001 to 0.1 µM.

`C=CC(=O)N1CCc2nn(-c3ccc(C(C)C)cc3)c3c2C(C1)N(C(=O)c1ccc(Br)c2[nH]cnc12)CC3` (centres unmarked) [Compound 7, 1-(5-(7-bromo-1H-benzo[d]imidazole-4-carbonyl)-2-(4-isopropylphenyl)-2,3,4,5,5a,6,8,9-octahydro-7H-1,2,5,7-tetraazabenzo[cd]azulen-7-yl)prop-2-en-1-one]: the AC50 is more than 3 µM in the assay with HT29 cells, 0.005 to 0.015 µM in assay [1], less than 0.0015 µM in assay [2] and 0.001 to 0.1 µM in the assay on HCT116 cells.

In the case of `C=CC(=O)N1CC(C)c2nn(-c3ccc(C4CC4)cc3O)c3c2C(C1)N(C(=O)c1cnc(C(F)(F)F)cc1N)CC3` (centres unmarked) [Compound 189, 1-(5-(4-amino-6-(trifluoromethyl)nicotinoyl)-2-(4-cyclopropyl-2-hydroxyphenyl)-9-methyl-2,3,4,5,5a,6,8,9-octahydro-7H-1,2,5,7-tetraazabenzo[cd]azulen-7-yl)prop-2-en-1-one], the concentration at half-maximal activity (AC50) was more than 3 µM in the assay with HT29 cells, 0.005 to 0.015 µM in assay [1], less than 0.0015 µM in assay [2] and 0.001 to 0.1 µM in the assay with HCT116 cells.

In the case of `C=CC(=O)N1CCc2nn(-c3ccc(C4CCC4)c(F)c3)c3c2C(C1)N(C(=O)c1cnc(C(F)(F)F)c(O)c1)CC3` (centres unmarked) [Compound 66, 1-(2-(4-cyclobutyl-3-fluorophenyl)-5-(5-hydroxy-6-(trifluoromethyl)nicotinoyl)-2,3,4,5,5a,6,8,9-octahydro-7H-1,2,5,7-tetraazabenzo[cd]azulen-7-yl)prop-2-en-1-one], the AC50 in the assay with HT29 cells is more than 3 µM; in assay [1], 0.005 to 0.015 µM; in assay [2], less than 0.0015 µM; in the assay with HCT116 cells it was 0.001 to 0.1 µM.

Regarding `C=CC(=O)N1CCc2nn(-c3ccc(C4CCC4)cc3)c3c2C(C1)N(C(=O)c1cnc(C(F)(F)F)c(O)c1)CC3` (centres unmarked) [Compound 26, 1-(2-(4-cyclobutylphenyl)-5-(5-hydroxy-6-(trifluoromethyl)nicotinoyl)-2,3,4,5,5a,6,8,9-octahydro-7H-1,2,5,7-tetraazabenzo[cd]azulen-7-yl)prop-2-en-1-one], the AC50 in the assay with HT29 cells was more than 3 µM; in assay [1], 0.005 to 0.015 µM; in assay [2], less than 0.0015 µM; with HCT116 cells, 0.001 to 0.1 µM.

Regarding `C=CC(=O)N1CC(OC)c2nn(-c3ccc(C4CC4)cc3)c3c2C(C1)N(C(=O)c1cnc(C(F)(F)F)cc1N)CC3` (centres unmarked) [Compound 187, 1-(5-(4-amino-6-(trifluoromethyl)nicotinoyl)-2-(4-cyclopropylphenyl)-9-methoxy-2,3,4,5,5a,6,8,9-octahydro-7H-1,2,5,7-tetraazabenzo[cd]azulen-7-yl)prop-2-en-1-one], the concentration at half-maximal activity (AC50) in the assay on HT29 cells is more than 3 µM; in assay [1], 0.005 to 0.015 µM; in assay [2], less than 0.0015 µM; with HCT116 cells, 0.001 to 0.1 µM.

Turning to `C=CC(=O)N1CCc2nn(-c3ccc(C(C)C)cc3O)c3c2C(C1)N(C(=O)c1ccc(Br)c2[nH]cnc12)CC3` (centres unmarked) [Compound 20, 1-(5-(7-bromo-1H-benzo[d]imidazole-4-carbonyl)-2-(2-hydroxy-4-isopropylphenyl)-2,3,4,5,5a,6,8,9-octahydro-7H-1,2,5,7-tetraazabenzo[cd]azulen-7-yl)prop-2-en-1-one], the AC50 is more than 3 µM in the assay with HT29 cells, 0.005 to 0.015 µM in assay [1], less than 0.0015 µM in assay [2] and 0.001 to 0.1 µM in the assay on HCT116 cells.

As for `C=CC(=O)N1CCc2nn(-c3ccc(C4CCC4)cc3O)c3c2C(C1)N(C(=O)c1ccc(C(F)(F)F)nc1)CC3` (centres unmarked) [Compound 96, 1-(2-(4-cyclobutyl-2-hydroxyphenyl)-5-(6-(trifluoromethyl)nicotinoyl)-2,3,4,5,5a,6,8,9-octahydro-7H-1,2,5,7-tetraazabenzo[cd]azulen-7-yl)prop-2-en-1-one], the AC50 with HT29 cells is more than 3 µM; in assay [1], 0.005 to 0.015 µM; in assay [2] it was less than 0.0015 µM; in the assay with HCT116 cells, 0.001 to 0.1 µM.

As to `C=CC(=O)N1CCc2nn(-c3ccc(C(C)C)cc3O)c3c2C(C1)N(C(=O)c1cnc(C(F)(F)F)c(O)c1)CC3` (centres unmarked) [Compound 21, 1-(2-(2-hydroxy-4-isopropylphenyl)-5-(5-hydroxy-6-(trifluoromethyl)nicotinoyl)-2,3,4,5,5a,6,8,9-octahydro-7H-1,2,5,7-tetraazabenzo[cd]azulen-7-yl)prop-2-en-1-one], the AC50 with HT29 cells was more than 3 µM; in assay [1] it was 0.005 to 0.015 µM; in assay [2], less than 0.0015 µM; in the assay on HCT116 cells it was 0.001 to 0.1 µM.

As to `C=CC(=O)N1CCOc2nn(-c3ccc(C4CCC4)cc3O)c3c2C(C1)N(C(=O)c1ccc(Br)c2[nH]cnc12)CC3` (centres unmarked) [Compound 39, 1-(5-(7-bromo-1H-benzo[d]imidazole-4-carbonyl)-2-(4-cyclobutyl-2-hydroxyphenyl)-2,3,4,5,5a,6,8,9-octahydro-7H-10-oxa-1,2,5,7-tetraazacycloocta[cd]inden-7-yl)prop-2-en-1-one], the AC50 was more than 3 µM with HT29 cells, 0.015 to 0.055 µM in assay [1], 0.0015 to 0.005 µM in assay [2] and 0.001 to 0.1 µM in the assay on HCT116 cells.

Regarding `C=CC(=O)N1CCc2nn(-c3ccc(C4CC4)cc3)c3c2C(C1)N(C(=O)c1ccc(Br)c2[nH]nc(N)c12)CC3` (centres unmarked) [Compound 131, 1-(5-(3-amino-7-bromo-1H-indazole-4-carbonyl)-2-(4-cyclopropylphenyl)-2,3,4,5,5a,6,8,9-octahydro-7H-1,2,5,7-tetraazabenzo[cd]azulen-7-yl)prop-2-en-1-one], the AC50 is more than 3 µM in the assay with HT29 cells, 0.005 to 0.015 µM in assay [1], less than 0.0015 µM in assay [2] and 0.001 to 0.1 µM in the assay with HCT116 cells.
